Molecular target: recombinant human Myt1 (Homo sapiens (Human), UniProt Q99640)
Assay: Myt1 enzymatic assay (ADP-Glo kinase assay)
Assay type: biochemical
Settings: recombinant human Myt1 18 nM, ATP 10 μM
Protocol: Detection of Myt1 kinase activity utilized a recombinant human Myt1 kinase assay measuring the hydrolysis of ATP using a commercially available ADP-Glo Assay (ADP-Glo™ Kinase Assay from Promega, 10 000 assays, #V9102). Briefly, 5 μL recombinant human Myt1 (full length PKMYT1 recombinant human protein expressed in insect cells from Thermo Fisher #A33387; ˜80% purity) was prepared in reaction buffer (70 mM HEPES, 3 mM MgCl2, 3 mM MnCl2, 50 μg/ml PEG 20000, 3 μM Na-orthovanadate, 1.2 mM DTT) and added to 384 well white polystyrene, flat bottom well, non-treated, microplate (Corning #3572). After this, 5 μL of compounds (diluted in reaction buffer to 0.5% DMSO) was added to the microplate and the plate was spun briefly and incubated at 22° C. for 15 minutes. Ultra-Pure Adenosine Triphosphate (ATP) solution (ADP-Glo kit from Promega) was diluted in reaction buffer and 5 μL was added to the microplate, spun down briefly and incubated for 60 minutes at 30° C. The final Myt1 enzyme concentration was 18 nM and the final ATP concentration was 10 μM. After the 60-minute incubation, 15 μL of ADP-Glo reagent was added and the plate was spun briefly and sealed and incubated in the dark for 40 minutes at 22° C. Following this, 30 μL of kinase detection reagent was added per well and the plate was spun briefly, sealed and incubated for 45-60 minutes at 22° C. in the dark. Luminescence was read using the Envision (250 ms integration). The IC50 and the % max inhibition were calculated for each inhibitor compound tested.

Chain of recombinant human Myt1 (Q99640 whole entry): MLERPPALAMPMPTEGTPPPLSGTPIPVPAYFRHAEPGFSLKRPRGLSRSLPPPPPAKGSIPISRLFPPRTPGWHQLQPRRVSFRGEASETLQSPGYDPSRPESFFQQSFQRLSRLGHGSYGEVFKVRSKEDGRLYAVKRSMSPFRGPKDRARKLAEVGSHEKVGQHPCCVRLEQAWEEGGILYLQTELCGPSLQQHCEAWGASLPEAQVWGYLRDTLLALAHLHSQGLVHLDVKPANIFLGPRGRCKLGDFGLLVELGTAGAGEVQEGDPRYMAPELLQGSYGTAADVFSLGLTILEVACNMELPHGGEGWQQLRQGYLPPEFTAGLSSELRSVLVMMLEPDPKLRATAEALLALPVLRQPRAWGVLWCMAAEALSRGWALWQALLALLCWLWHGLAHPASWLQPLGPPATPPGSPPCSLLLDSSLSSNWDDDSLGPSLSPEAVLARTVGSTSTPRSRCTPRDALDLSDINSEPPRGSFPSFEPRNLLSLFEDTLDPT

| Compound | IC50 [nM] |
| --- | --- |
| Nc1c(-c2cccc3[nH]ncc23)cc(-c2ccc(Cl)s2)c2nc[nH]c(=O)c12 [Compound 123] | 89 |
| Nc1c(-c2cccc3[nH]ncc23)cc(-c2cc(F)cc(F)c2)c2nc[nH]c(=O)c12 [Compound 124] | 66 |
| Nc1c(-c2cccc3[nH]ncc23)cc(-c2ccc(C(F)(F)F)cc2)c2nc[nH]c(=O)c12 [Compound 125] | 839 |
| N#Cc1cnc(-c2cc(-c3cccc4[nH]ncc34)c(N)c3c(=O)[nH]cnc23)s1 [Compound 128] | 5 |
| Cn1ccc(-c2cc(-c3cccc4[nH]ncc34)c(N)c3c(=O)[nH]cnc23)n1 [Compound 129] | 23 |
| Nc1c(-c2cccc3[nH]ncc23)cc(-c2cccnn2)c2nc[nH]c(=O)c12 [Compound 131] | 70 |
| Nc1c(-c2cccc3[nH]ncc23)cc(-c2ccns2)c2nc[nH]c(=O)c12 [Compound 132] | 4 |
| Cc1ccc2[nH]ncc2c1-c1cc(Br)c2nc[nH]c(=O)c2c1N [Compound 133] | 26 |
| Cc1ccc(O)c(C)c1-c1cc(C2CC2)c2nc(-c3ccncc3)[nH]c(=O)c2c1N [Compound 134, 5-amino-8-cyclopropyl-6-(3-hydroxy-2,6-dimethyl-phenyl)-2-(4-pyridyl)-3H-quinazolin-4-one] | 5 |
| Cc1ccc(O)c(C)c1-c1cc(-c2ccn(C3CC3)n2)c2nc(-c3ccncc3)[nH]c(=O)c2c1N [Compound 135] | 3 |
| Cc1ccc(O)cc1-c1cc(-c2ccccn2)c2c(c1N)C(=O)NC2 [Compound 136] | 548 |
| Cc1ccc(O)cc1-c1cc(-c2ccccn2)c2nc[nH]c(=O)c2c1N [Compound 137] | 51 |
| Cc1ccc(O)c(C)c1-c1cc(-c2ccc(F)cn2)c2c(c1N)C(=O)NC2 [Compound 140] | 111 |
| Cc1ccc(O)cc1-c1cc(-c2ncc(NC(=O)C3CC3)s2)c2c(c1N)C(=O)NC2 [Compound 142] | 2240 |
| Cc1ccc(O)cc1-c1cc(-c2ncc(CN3CCOCC3)s2)c2c(c1N)C(=O)NC2 [Compound 143] | 1600 |
| Cc1ccc(O)cc1-c1cc(-c2ncc(C(=O)NCCO)s2)c2c(c1N)C(=O)NC2 [Compound 147] | 209 |
| CNC(=O)c1cnc(-c2cc(-c3cc(O)ccc3C)c(N)c3c2CNC3=O)s1 [Compound 150] | 163 |
| Cc1ccc(O)cc1-c1cc(-c2nc(C(=O)N(C)C)cs2)c2c(c1N)C(=O)NC2 [Compound 151] | 61 |
| Cc1ccc(O)cc1-c1cc(-c2ncc(C(=O)NC(C)C)s2)c2c(c1N)C(=O)NC2 [Compound 153] | 477 |
| Cc1ccc(O)cc1-c1cc(-c2ncc(C(=O)N(C)C)s2)c2c(c1N)C(=O)NC2 [Compound 154] | 298 |
| Cc1ccc(O)cc1-c1cc(-c2ncc(Cl)s2)c2c(c1N)C(=O)NC2 [Compound 156] | 576 |
| Cc1ccc(O)cc1-c1cc(-c2nc(C(=O)N3CCOCC3)cs2)c2c(c1N)C(=O)NC2 [Compound 157] | 244 |
| CNC(=O)c1csc(-c2cc(-c3cc(O)ccc3C)c(N)c3c2CNC3=O)n1 [Compound 159] | 75 |
| Cc1ccc(O)cc1-c1cc(-c2nc(C#N)cs2)c2c(c1N)C(=O)NC2 [Compound 160] | 237 |
| Cc1ccc(O)cc1-c1cc(-c2ccccc2)c2c(c1N)C(=O)NC2 [Compound 163, 7-amino-6-(5-hydroxy-2-methyl-phenyl)-4-phenyl-isoindolin-1-one] | 1070 |
| Nc1c(-c2cccc3[nH]ncc23)cc(-c2nccs2)c2nc(Oc3ccccc3)[nH]c(=O)c12 [Compound 165, 5-amino-6-(1H-indazol-4-yl)-2-phenoxy-8-(thiazol-2-yl)quinazolin-4(3H)-one] | 596 |

More lines, now with the values ahead:

| IC50 [nM] | Compound |
| --- | --- |
| 880 | Nc1c(-c2cccc3[nH]ncc23)cc(-c2ccc(C(F)(F)F)s2)c2nc[nH]c(=O)c12 [Compound 126] |
| 45 | Nc1c(-c2cccc3[nH]ncc23)cc(-c2cnccn2)c2nc[nH]c(=O)c12 [Compound 130] |
| 41 | Cc1ccc(O)cc1-c1cc(Br)c2nc[nH]c(=O)c2c1N [Compound 138] |
| 7 | Cc1ccc(O)c(C)c1-c1cc(-c2nccs2)c2c(c1N)C(=O)NC2 [Compound 139] |
| 92 | Cc1ccc(O)c(C)c1-c1cc(Br)c2c(c1N)C(=O)NC2 [Compound 141] |
| 930 | Cc1ccc(O)cc1-c1cc(-c2nc(NC(=O)C3CCOCC3)cs2)c2c(c1N)C(=O)NC2 [Compound 144] |
| 645 | Cc1ccc(O)cc1-c1cc(-c2nc(C(=O)NCCO)cs2)c2c(c1N)C(=O)NC2 [Compound 145] |
| 135 | Cc1ccc(O)cc1-c1cc(-c2nc(CN3CCOCC3)cs2)c2c(c1N)C(=O)NC2 [Compound 146] |
| 1860 | Cc1ccc(O)cc1-c1cc(-c2ncc(C(=O)O)s2)c2c(c1N)C(=O)NC2 [Compound 148] |
| 682 | Cc1ccc(O)cc1-c1cc(-c2nc(C(F)(F)F)cs2)c2c(c1N)C(=O)NC2 [Compound 149] |
| 683 | Cc1ccc(O)cc1-c1cc(-c2ncc(C(=O)N3CCOCC3)s2)c2c(c1N)C(=O)NC2 [Compound 152] |
| 179 | Cc1ccc(O)cc1-c1cc(-c2ncc(C#N)s2)c2c(c1N)C(=O)NC2 [Compound 155] |
| 55 | Cc1ccc(O)cc1-c1cc(-c2nc(C(=O)NC(C)C)cs2)c2c(c1N)C(=O)NC2 [Compound 158] |
| 253 | Cc1ccc(O)cc1-c1cc(-c2nc(Cl)cs2)c2c(c1N)C(=O)NC2 [Compound 161, 7-amino-4-(4-chlorothiazol-2-yl)-6-(5-hydroxy-2-methylphenyl)isoindolin-1-one] |
| 182 | Cc1ccc(O)cc1-c1cc(-c2nc(C(=O)O)cs2)c2c(c1N)C(=O)NC2 [Compound 162] |
| 12 | Cc1ccc(O)cc1-c1cc(-c2nccs2)c2cc[nH]c(=O)c2c1N [Compound 164, 8-amino-7-(5-hydroxy-2-methyl-phenyl)-5-thiazol-2-yl-2H-isoquinolin-1-one] |

— patent US20230348456A1, “QUINAZOLINONES, PHARMACEUTICAL COMPOSITIONS CONTAINING THE SAME, AND METHODS OF USING THE SAME” (Repare Therapeutics Inc., priority 2022, published 2023)
